Experimental data from patent US20240326041A1, “MICROFLUIDIC INDUCTION OF RESEARCH BASED NEURAL INJURY” (Worcester Polytechnic Institute, priority 2023, published 2024).

Assays:
rTRPV4 = rTRPV4 (Rattus norvegicus, UniProt Q9ERZ8); details: commercially available TRPV4 antagonist, vendor description; cited from earlier work
hTRPV4 = hTRPV4 (Homo sapiens, UniProt Q9HBA0); details: commercially available TRPV4 antagonist, vendor description; cited from earlier work
C. elegans [1] = assay: Behavioral state after sonication-induced traumatic injury in microfluidic device; type: in vivo; details: 2 hour pre-exposure to 1 mM NAC; initial behavioral data
Protocol: To injure animals, a continuous flow of buffer fluid is pumped through a microfluidic device 120 having serpentine microchannels in a bath sonicator-induced cavitation field. Animals are trapped in the flow and directed through the cavitation field. Exposure time is determined by channel length and flow velocity. […] Animals are recovered on an agar plate 130 for further transfer and analysis using widefield or high-resolution microscopy, or encapsulated in hydrogel and assessed over time in presence of various pharmacological agents. […] A batch of test subjects is isolated and introduced via the buffer fluid 114 and suitable coupling 116, as depicted at step 404. The microfluidic device 120 including the post array 140 receives the test subjects 152-N, as shown at step 406. Computer-controlled bath sonication induces titratable cavitation conditions within a microfluidic post-array 140. […] Upon removal, animals may be assessed visually for behavioral state according to the following definitions: • Paralysis: movement phenotype characterized by no obvious gross bodily movement. • Twitch: movement phenotype characterized by shaking or convulsions of the body or a substantial part of the main body of the animal.

C. elegans [2] = assay: Recovery of neural activity (AWA calcium imaging) after sonication-induced injury; type: in vivo; details: wild-type C. elegans, NAC-induced recovery
Protocol: FIGS. 8A-8C show results of test substances for treatment of an injury induced by the microfluidic device of FIGS. 1-4. Referring to FIGS. 8A-8C, one approach to therapeutic and/or prophylactic neural treatment includes two chemical agents that are diluted to physiological concentrations and administered in liquid form to the test animals using their food. Drug compositions are applied for a series of several hours to allow the biological function of the composition to manifest. Animals are removed from drug administration and allowed to immobilize under anesthetic for a period of ˜60 minutes in a microfluidic device before being injured. […] The described action of the drug composition is to inhibit the ability of calcium influx channels to operate for a period of time before and during the injury, allowing later recovery of the neuron response when the action of the drug composition ceases.

Chain of rTRPV4 (Q9ERZ8 whole entry): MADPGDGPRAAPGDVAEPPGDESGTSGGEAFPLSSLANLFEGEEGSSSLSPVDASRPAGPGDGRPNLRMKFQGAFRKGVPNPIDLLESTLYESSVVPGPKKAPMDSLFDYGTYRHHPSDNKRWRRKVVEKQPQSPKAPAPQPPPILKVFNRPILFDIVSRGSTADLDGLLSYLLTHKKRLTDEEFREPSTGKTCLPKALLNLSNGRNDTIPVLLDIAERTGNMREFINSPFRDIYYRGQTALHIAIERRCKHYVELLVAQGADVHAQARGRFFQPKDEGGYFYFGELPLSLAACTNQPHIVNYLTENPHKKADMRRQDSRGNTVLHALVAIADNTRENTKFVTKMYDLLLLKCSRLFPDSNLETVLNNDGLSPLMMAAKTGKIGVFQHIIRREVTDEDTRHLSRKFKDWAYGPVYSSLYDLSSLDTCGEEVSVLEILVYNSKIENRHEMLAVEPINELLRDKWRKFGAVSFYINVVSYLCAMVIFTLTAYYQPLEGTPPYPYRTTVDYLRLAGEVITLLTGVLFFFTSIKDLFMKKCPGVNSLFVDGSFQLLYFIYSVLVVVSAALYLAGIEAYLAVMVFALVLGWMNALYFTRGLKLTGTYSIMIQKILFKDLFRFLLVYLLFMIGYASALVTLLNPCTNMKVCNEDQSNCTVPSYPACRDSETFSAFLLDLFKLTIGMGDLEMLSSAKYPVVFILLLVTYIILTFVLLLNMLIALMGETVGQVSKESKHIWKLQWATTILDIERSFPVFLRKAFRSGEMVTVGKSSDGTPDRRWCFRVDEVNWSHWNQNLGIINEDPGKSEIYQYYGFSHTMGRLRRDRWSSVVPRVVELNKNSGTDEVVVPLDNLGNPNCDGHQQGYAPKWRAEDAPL
Chain of hTRPV4 (Q9HBA0 whole entry): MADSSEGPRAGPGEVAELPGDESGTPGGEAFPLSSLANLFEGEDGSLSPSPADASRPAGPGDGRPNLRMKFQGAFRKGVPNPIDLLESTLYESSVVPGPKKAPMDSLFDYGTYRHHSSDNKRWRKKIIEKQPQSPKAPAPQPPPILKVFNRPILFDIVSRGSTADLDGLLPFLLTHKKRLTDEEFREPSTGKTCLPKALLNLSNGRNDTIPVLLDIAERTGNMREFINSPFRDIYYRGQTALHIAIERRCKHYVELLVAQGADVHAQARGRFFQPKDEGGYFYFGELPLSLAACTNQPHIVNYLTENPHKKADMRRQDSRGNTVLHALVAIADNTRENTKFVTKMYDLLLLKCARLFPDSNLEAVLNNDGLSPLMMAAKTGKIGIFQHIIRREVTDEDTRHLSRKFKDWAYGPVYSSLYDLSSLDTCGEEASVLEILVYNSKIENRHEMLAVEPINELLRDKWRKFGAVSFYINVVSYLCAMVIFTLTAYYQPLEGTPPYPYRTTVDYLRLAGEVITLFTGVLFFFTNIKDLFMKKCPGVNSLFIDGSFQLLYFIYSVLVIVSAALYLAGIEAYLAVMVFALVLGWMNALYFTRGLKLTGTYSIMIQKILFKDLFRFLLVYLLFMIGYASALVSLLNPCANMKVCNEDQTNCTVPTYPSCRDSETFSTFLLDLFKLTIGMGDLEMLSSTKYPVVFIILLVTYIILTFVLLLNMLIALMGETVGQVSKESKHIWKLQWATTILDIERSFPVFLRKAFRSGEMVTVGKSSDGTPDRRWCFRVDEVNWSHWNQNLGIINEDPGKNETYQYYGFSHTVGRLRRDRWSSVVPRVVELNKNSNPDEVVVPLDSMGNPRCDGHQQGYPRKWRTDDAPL

In the case of `O=C(NC1(c2ccccc2)CC1)c1c(CN2CCC(N3CCCCC3)CC2)c(-c2cccc(C(F)(F)F)c2)nc2cc(Br)ccc12` [GSK2193874], the IC50 (rTRPV4) is listed as 2 nM and the IC50 (hTRPV4) is listed as 40 nM.

With `CC(=O)N[C@@H](CS)C(=O)O` [NAC, N-acetyl-L-cysteine] the “behavioral vulnerability after injury” value (C. elegans [1]) was “lessens behavioral vulnerability” and the “calcium transients on recovery after injury” value (C. elegans [2]) was “produces calcium transients similar to ‘osm’ mutants”.
